Source: patent US9562033B2, “Inhibitors of viral replication, their process of preparation and their therapeutical uses” (LABORATOIRE BIODIM, priority 2012, dated 2017)

What follows are compounds tested on NL4-3 strain of HIV-1 (assay: HIV-1 replication inhibition: cyto-protection of MT4 cells infected with NL4-3 virus (CellTiter-Glo viability assay)). Details: Human immunodeficiency virus 1, NL43, 120 h, concentration leading to 50% of cyto-protection, 5 days incubation.
Assay type: cell-based
Experimental: The antiviral activity, particularly against HIV, of compounds according to the invention is evaluated by the protocol described below.
Preparation of Virus Stock of the NL4-3 Strain of HIV-1
The virus was prepared as described in Lopez et al (Lopez et al, Proc Natl Acad Sci USA., 2006, 103(40):14947-52, by transfecting 2×10^6 293 T cells (CRL-1573, ATCC) with following modifications: 6 μg of NL4-3 proviral DNA molecular clone were mixed with Fugene 6 transfection reagent from Roche, and used according to manufacturer's instructions. Forty eight hours later, transfected cell supernatants were harvested, filtered through 0.45-μm-pore-size filters, quantified for HIV-1 p24 antigen by using a Innotest HIV antigen mAb assay (Ingen) according to manufacturer's instructions, and used in infection experiments.
Preparation of Compounds:
Serial dilutions of compounds to be tested were prepared in complete RPMI medium from 10 mM DMSO stock solutions, and distributed in a volume of 20 µl in 96 well Falcon 353072 Microtest™ tissue culture plate, in order to get 0.5% DMSO final concentration in each well, after the addition of infected cells. Control wells contained also 0.5% DMSO final concentration but no compound.
MT4 cells (from the NIH AIDS Research and Reference Reagent Program) in RPMI complete medium were counted (10×10^6 cells per well in Falcon 353047 Multiwell™ 24 well) and infected for 2 hours at 37°, at a multiplicity of infection (moi) of 0.0001-0.00001. Cells were then centrifuged 3 min at 3000 rpm, and washed two times in 1 ml PBS to remove viruses that have not entered in cells. Infected cells were resuspended in complete RPMI at 1.25×10^6 cells/ml, and 80 µl of infected cells were distributed in each well containing compounds to be tested or control wells. The plates were then incubated at 37° for 5 days.
Assay Used to Measure the Inhibition of HIV Replication by the Compounds
(according to Gregg S. Jones et al., Antimicrobial Agents and Chemotherapy, 2009, 53 (3): 1194-1203).
After 5 days of incubation, […] of CellTiter-Glo reagent (Promega Biosciences, Inc., Madison Wis., USA) were added to each well. Cell lysis was carried out at room temperature during 10 min, 150 μl of lysates were transferred in Packard Optiplate 96 well, and luminescence was read on a Fluoroskan (Thermo Scientific).

Structure (SMILES)	EC50 [nM]
Cc1sc(-c2ccccc2)c(-c2ccc3c(c2)CCCO3)c1C(OC(C)(C)C)C(=O)O (centres unmarked) [Example 1, 2-(tert-butoxy)-2-[4-(3,4-dihydro-2H-1-benzopyran-6-yl)-2-methyl-5-phenylthiophen-3-yl]acetic acid]	260
Cc1sc(-c2ccc(F)cc2)c(-c2ccc3c(c2)CCCO3)c1C(OC(C)(C)C)C(=O)O (centres unmarked) [Example 2, 2-(tert-butoxy)-2-[4-(3,4-dihydro-2H-1-benzopyran-6-yl)-5-(4-fluorophenyl)-2-methylthiophen-3-yl]acetic acid]	190
Cc1sc(-c2ccncc2)c(-c2ccc3c(c2)CCCO3)c1C(OC(C)(C)C)C(=O)O (centres unmarked) [Example 3, 2-(tert-butoxy)-2-[4-(3,4-dihydro-2H-1-benzopyran-6-yl)-2-methyl-5-(pyridin-4-yl)thiophen-3-yl]acetic acid]	100
Cc1sc(-c2cnc3c(c2)CCCO3)c(-c2ccc3c(c2)CCCO3)c1C(OC(C)(C)C)C(=O)O (centres unmarked) [Example 4, (tert-butoxy)[4-(3,4-dihydro-2H-1-benzopyran-6-yl)-2-methyl-5-{2H,3H,4H-pyrano[2,3-b]pyridin-6-yl}thiophen-3-yl]acetic acid]	180
Cc1sc(-c2ccncc2)c(C2=CCC(C)(C)CC2)c1C(OC(C)(C)C)C(=O)O (centres unmarked) [Example 5, 2-(tert-butoxy)-2-[4-(4,4-dimethylcyclohex-1-en-1-yl)-2-methyl-5-(pyridin-4-yl)thiophen-3-yl]acetic acid]	41
Cc1sc(-c2ccncc2)c(C2=CCC(C(C)C)CC2)c1C(OC(C)(C)C)C(=O)O (centres unmarked) [Example 6, 2-(tert-butoxy)-2-{2-methyl-4-[4-(propan-2-yl)cyclohex-1-en-1-yl]-5-(pyridin-4-yl)thiophen-3-yl}acetic acid]	160
Cc1sc(-c2cnc3c(c2)CCCO3)c(C2=CCC(C)(C)CC2)c1C(OC(C)(C)C)C(=O)O (centres unmarked) [Example 7]	81
Cc1sc(-c2cccnc2)c(-c2ccc3c(c2)CCCO3)c1C(OC(C)(C)C)C(=O)O (centres unmarked) [Example 8, 2-(tert-butoxy)-2-[4-(3,4-dihydro-2H-1-benzopyran-6-yl)-2-methyl-5-(pyridin-3-yl)thiophen-3-yl)acetic acid]	270
Cc1sc(-c2ccncc2)c(C2=CCC(C)CC2)c1C(OC(C)(C)C)C(=O)O (centres unmarked) [Example 10, 2-(tert-butoxy)-2-[2-methyl-4-(4-methylcyclohex-1-en-1-yl)-5-(pyridin-4-yl)thiophen-3-yl]acetic acid]	140
Cc1sc(-c2ccncc2)c(C2=CCC(C)(C)CC2)c1[C@H](OC(C)(C)C)C(=O)O [Example 11, (2S)-2-(tert-butoxy)-2-[4-(4,4-dimethylcyclohex-1-en-1-yl)-2-methyl-5-(pyridin-4-yl)thiophen-3-yl]acetic acid]	32
Cc1sc(-c2ccncc2)c(C2=CCC3(CC2)CC3)c1C(OC(C)(C)C)C(=O)O (centres unmarked) [Example 12, 2-(tert-butoxy)-2-[2-methyl-5-(pyridin-4-yl)-4-{spiro[2,5]oct-5-en-6-yl}thiophen-3-yl]acetic acid]	130
Cc1sc(-c2ccnc(F)c2)c(-c2ccc3c(c2)CCCO3)c1C(OC(C)(C)C)C(=O)O (centres unmarked) [Example 13, 2-(tert-butoxy)-2-[4-(3,4-dihydro-2H-1-benzopyran-6-yl)-5-(2-fluoropyridin-4-yl)-2-methylthiophen-3-yl) acetic acid]	150
Cc1cc(-c2sc(C)c(C(OC(C)(C)C)C(=O)O)c2-c2ccc3c(c2)CCCO3)ccn1 (centres unmarked) [Example 14, 2-(tert-butoxy)-2-[4-(3,4-dihydro-2H-1-benzopyran-6-yl)-2-methyl-5-(2-methylpyridin-4-yl)thiophen-3-yl]acetic acid]	480
Cc1sc(-c2ccnc3ccccc23)c(-c2ccc3c(c2)CCCO3)c1C(OC(C)(C)C)C(=O)O (centres unmarked) [Example 15, 2-(tert-butoxy)-2-[4-(3,4-dihydro-2H-1-benzopyran-6-yl)-2-methyl-5-(quinolin-4-yl)thiophen-3-yl]acetic acid]	410
Cc1sc(-c2ccoc2)c(-c2ccc3c(c2)CCCO3)c1C(OC(C)(C)C)C(=O)O (centres unmarked) [Example 16, 2-(tert-butoxy)-2-[4-(3,4-dihydro-2H-1-benzopyran-6-yl)-5-(furan-3-yl)-2-methylthiophen-3-yl]acetic acid]	820
Cc1sc(-c2ccnc(OCc3ccccc3)c2)c(-c2ccc3c(c2)CCCO3)c1C(OC(C)(C)C)C(=O)O (centres unmarked) [Example 17, 2-{5-[2-(benzyloxy)pyridin-4-yl]-4-(3,4-dihydro-2H-1-benzopyran-6-yl)-2-methylthiophen-3-yl}-2-(tert-butoxy)acetic acid]	650
Cc1sc(-c2cncnc2)c(-c2ccc3c(c2)CCCO3)c1C(OC(C)(C)C)C(=O)O (centres unmarked) [Example 18, 2-(tert-butoxy)-2-[4-(3,4-dihydro-2H-1-benzopyran-6-yl)-2-methyl-5-(pyrimidin-5-yl)thiophen-3-yl]acetic acid]	260
Cc1sc(-c2ccc(=O)n(C)c2)c(-c2ccc3c(c2)CCCO3)c1C(OC(C)(C)C)C(=O)O (centres unmarked) [Example 19, 2-(tert-butoxy)-2-[4-(3,4-dihydro-2H-1-benzopyran-6-yl)-2-methyl-5-(1-methyl-6-oxo-1,6-dihydropyridin-3-yl)thiophen-3-yl]acetic acid]	430
Cc1sc(-c2ccsc2)c(-c2ccc3c(c2)CCCO3)c1C(OC(C)(C)C)C(=O)O (centres unmarked) [Example 20, 2-(tert-butoxy)-2-[4-(3,4-dihydro-2H-1-benzopyran-6-yl)-2-methyl-5-(thiophen-3-yl)thiophen-3-yl]acetic acid]	220
CC(=O)NCc1ccc(-c2sc(C)c(C(OC(C)(C)C)C(=O)O)c2-c2ccc3c(c2)CCCO3)cc1 (centres unmarked) [Example 21, 2-(tert-butoxy)-2-[4-(3,4-dihydro-2H-1-benzopyran-6-yl)-5-[4-(acetamidomethyl)phenyl]-2-methylthiophen-3-yl]acetic acid]	580
Cc1sc(-c2ccc(C(N)=O)cc2)c(-c2ccc3c(c2)CCCO3)c1C(OC(C)(C)C)C(=O)O (centres unmarked) [Example 22, 2-(tert-butoxy)-2-[5-(4-carbamoylphenyl)-4-(3,4-dihydro-2H-1-benzopyran-6-yl)-2-methylthiophen-3-yl]acetic acid]	300
Cc1sc(-c2cccs2)c(-c2ccc3c(c2)CCCO3)c1C(OC(C)(C)C)C(=O)O (centres unmarked) [Example 23, 2-(tert-butoxy)-2-[4-(3,4-dihydro-2H-1-benzopyran-6-yl)-2-methyl-5-(thiophen-2-yl)thiophen-3-yl]acetic acid]	170
Cc1sc(-c2cnn(C)c2)c(C2=CCC(C)(C)CC2)c1C(OC(C)(C)C)C(=O)O (centres unmarked) [Example 24, 2-(tert-butoxy)-2-[4-(4,4-dimethylcyclohex-1-en-1-yl)-2-methyl-5-(N-methylpyrazol-4-yl)thiophen-3-yl]acetic acid]	310
Cc1sc(-c2cncnc2)c(C2=CCC(C)(C)CC2)c1C(OC(C)(C)C)C(=O)O (centres unmarked) [Example 25, 2-(tert-butoxy)-2-[4-(4,4-dimethylcyclohex-1-en-1-yl)-2-methyl-5-(pyrimidin-5-yl)thiophen-3-yl]acetic acid]	190
Cc1sc(-c2cnn(C)c2)c(C2=CCC(C(C)C)CC2)c1C(OC(C)(C)C)C(=O)O (centres unmarked) [Example 26, 2-(tert-butoxy)-2-{2-methyl-4-[4-(propan-2-yl)cyclohex-1-en-1-yl]-5-(N-methylpyrazol-4-yl)thiophen-3-yl}acetic acid]	830
Cc1sc(-c2ccc(C(N)=O)cc2)c(C2=CCC(C)(C)CC2)c1C(OC(C)(C)C)C(=O)O (centres unmarked) [Example 27, 2-(tert-butoxy)-2-[5-(4-carbamoylphenyl)-4-(4,4-dimethylcyclohex-1-en-1-yl)-2-methylthiophen-3-yl]acetic acid]	90
Cc1sc(-c2ccncc2)c(C2=CCC(F)(F)CC2)c1C(OC(C)(C)C)C(=O)O (centres unmarked) [Example 28, 2-(tert-butoxy)-2-[2-methyl-4-(4,4-difluorocyclohex-1-en-1-yl)-5-(pyridin-4-yl)thiophen-3-yl]acetic acid]	750
CNC(=O)c1ccc(-c2sc(C)c(C(OC(C)(C)C)C(=O)O)c2C2=CCC(C)(C)CC2)cc1 (centres unmarked) [Example 29, 2-(tert-butoxy)-2-[4-(4,4-dimethylcyclohex-1-en-1-yl)-2-methyl-5-(N-methyl-4-aminocarbonylphenyl)thiophen-3-yl]acetic acid]	90
Cc1sc(-c2ccc(=O)n(C)c2)c(C2=CCC(C)(C)CC2)c1C(OC(C)(C)C)C(=O)O (centres unmarked) [Example 30]	70
